ChEMBL document CHEMBL3886340, “2-substituted-3-phenylpropionic acid derivatives and their use in the treatment of inflammatory bowel disease” (2015)

Tests used:
[1] = target: T1, Peroxisome proliferator-activated receptor gamma (Homo sapiens, UniProt P37231); assay: (§1) Reporter Gene Assay: Transactivation Assay Expression vectors were prepared by inserting the ligand binding domain cDNA (complementary DNA) of human PPARalpha (amino acid 168-468) and human PPARgamma (amino acid 205-505), 3′ to and in frame with, the yeast GAL4 transcription factor DNA binding domain and the nuclear localization signal from the T-antigen of Polyoma Virus into the mammalian expression vector pSGS (Stratagene). The resulting expression vectors pSGGAL-PPARalpha and pSGGAL-PPARgamma were used in co-transfection experiments together with a modified pGL3 promoter plasmid (Promega) containing five copies of the UAS GAL4 recognition site. 2.5 μg pSGGAL-PPARalpha or pSGGAL-PPARgamma were mixed with 25 μg pGL3p […] and 22.5 μg pBluescript (Stratagene) in 0.95 mL ice cold PBS containing between 9-12 million U-2 OS (human osteosarcoma) cells. The cell/DNA mixture was incubated on ice for 5 minutes and then divided between two 0.4 cm cuvettes and electroporated at 960 μF, 2
T1 sequence (P37231 whole entry): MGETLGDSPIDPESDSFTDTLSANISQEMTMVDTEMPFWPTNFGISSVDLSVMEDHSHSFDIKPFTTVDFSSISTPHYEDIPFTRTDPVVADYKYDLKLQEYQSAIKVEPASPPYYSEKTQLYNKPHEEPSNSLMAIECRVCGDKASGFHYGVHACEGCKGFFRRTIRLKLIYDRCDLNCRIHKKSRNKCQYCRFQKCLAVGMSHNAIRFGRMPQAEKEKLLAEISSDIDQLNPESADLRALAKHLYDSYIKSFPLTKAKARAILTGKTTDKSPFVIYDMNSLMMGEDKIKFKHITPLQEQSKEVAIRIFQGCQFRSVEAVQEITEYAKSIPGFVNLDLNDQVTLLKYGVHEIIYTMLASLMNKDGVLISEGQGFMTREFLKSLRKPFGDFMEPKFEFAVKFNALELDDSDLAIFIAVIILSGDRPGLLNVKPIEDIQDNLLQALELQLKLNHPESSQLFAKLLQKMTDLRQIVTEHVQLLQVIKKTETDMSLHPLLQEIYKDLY

[2] = target: T2, Peroxisome proliferator-activated receptor alpha (Homo sapiens, UniProt Q07869); assay: as §1
T2 sequence (Q07869 whole entry): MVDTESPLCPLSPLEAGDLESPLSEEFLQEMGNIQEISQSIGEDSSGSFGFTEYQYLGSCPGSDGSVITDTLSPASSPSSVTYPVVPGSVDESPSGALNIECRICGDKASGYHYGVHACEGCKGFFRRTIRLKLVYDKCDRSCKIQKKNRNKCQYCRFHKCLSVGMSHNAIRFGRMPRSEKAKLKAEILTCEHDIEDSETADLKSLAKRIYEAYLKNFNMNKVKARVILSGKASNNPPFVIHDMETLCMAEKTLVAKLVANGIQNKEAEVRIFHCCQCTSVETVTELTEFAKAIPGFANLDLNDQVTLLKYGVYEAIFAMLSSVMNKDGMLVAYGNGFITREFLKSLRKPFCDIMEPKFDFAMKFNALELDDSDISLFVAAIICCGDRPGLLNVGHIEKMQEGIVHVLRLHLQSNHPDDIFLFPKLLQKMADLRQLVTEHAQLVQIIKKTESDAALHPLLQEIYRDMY

Structure (SMILES)	EC50 [1]	EC50 [2]
O=C(Cc1ccccn1)OCc1ccc(CC(SCCc2ccc(F)cc2)C(=O)O)cc1 (stereo unspecified)	2100 nM	1500 nM
CS(=O)(=O)Oc1ccc(C(=O)OCc2ccc(CC(SCCc3ccc(F)cc3)C(=O)O)cc2)cc1 (stereo unspecified)	1800 nM	240 nM
CS(=O)(=O)Oc1ccc(CC(=O)OCc2ccc(CC(SCCc3ccc(F)cc3)C(=O)O)cc2)cc1 (stereo unspecified)	1700 nM	240 nM
